Assay results taken from patent publication US6191135A, “Neurokinin antagonists” (Boehringer Ingelheim KG, priority 1994, dated 2001).
Read-outs that look alike come from different tables or passages of the source.

Target: T1, NK1 -receptor (substance P-receptor) (Homo sapiens, UniProt P25103)
T1 construct: intact human lymphoblastoma cells (IM-9) which express NK1 -receptors; endogenous in cells; host or cells: IM-9 human lymphoblastoma cells
Test: NK1-receptor affinity: displacement of 125I labelled substance P on intact human lymphoblastoma cells (IM-9)
Assay type: binding
Conditions: intact human lymphoblastoma cells (IM-9) expressing NK1-receptors
Procedure: The receptor affinity for the NK1 -receptor (substance P-receptor) was determined on intact human lymphoblastoma cells (IM-9) which express NK1 -receptors, and the displacement of ^125 I labelled substance P was measured.

T1 sequence (P25103 whole entry): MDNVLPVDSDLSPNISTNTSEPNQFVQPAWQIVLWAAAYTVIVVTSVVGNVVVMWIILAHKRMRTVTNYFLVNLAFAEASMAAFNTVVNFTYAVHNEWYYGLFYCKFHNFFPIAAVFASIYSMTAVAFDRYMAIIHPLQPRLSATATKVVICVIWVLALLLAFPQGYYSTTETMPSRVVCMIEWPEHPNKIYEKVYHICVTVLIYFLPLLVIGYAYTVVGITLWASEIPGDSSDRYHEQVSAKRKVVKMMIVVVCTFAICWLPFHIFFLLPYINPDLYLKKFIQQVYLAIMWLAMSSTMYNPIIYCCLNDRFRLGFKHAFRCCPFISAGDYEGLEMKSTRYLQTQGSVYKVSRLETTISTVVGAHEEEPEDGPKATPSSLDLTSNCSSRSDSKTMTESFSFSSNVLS

SMILES	Ki (read-out: Ki)	Ki (Ki)
COc1ccccc1C(CNCc1cc(C(F)(F)F)cc(C(F)(F)F)c1)N1CCCC(c2ccccc2)C1 (single isomer, unassigned) [Example 86, 3,5-Bistrifluoromethylbenzyl-[2-(2-methoxyphenyl)-2-(3-phenylpiperidine-1-yl)-ethyl]-amine]	368 nM	–
COc1ccccc1C(CNCc1cc(C(F)(F)F)cc(C(F)(F)F)c1)N1CCN(c2ccccc2)CC1 (centres unmarked) [Example 1, 3,5-Bistrifluoromethylbenzyl-[2-(2-methoxyphenyl)-2-(4-phenylpiperazine-1-yl)-ethyl]-amine]	333 nM	–
COc1ccccc1C(CN(Cc1cc(C(F)(F)F)cc(C(F)(F)F)c1)C(C)=O)N1CCN(c2ccccc2)CC1 (centres unmarked) [Example 2, N-3,5-Bistrifluoromethylbenzyl-N-[2-(2-methoxyphenyl)-2-(4-phenylpiperazine-1-yl)-ethyl]-acetamide]	909 nM	–
FC(F)(F)c1cc(CNCC(c2ccccc2)N2CCN(c3ccccc3)CC2)cc(C(F)(F)F)c1 (centres unmarked) [Example 3, 3,5-Bistrifluoromethylbenzyl-[2-phenyl-2-(4-phenylpiperazine-1-yl)-ethyl]-amine]	800 nM	–
COc1ccccc1C(CNCc1cc(C(F)(F)F)cc(C(F)(F)F)c1)N1CCN(c2ccccc2C)CC1 (centres unmarked) [Example 19, 3,5-Bistrifluoromethylbenzyl-[2-(2-methoxyphenyl)-2-(4-(2-methylphenyl)-piperazine-1-yl)-ethyl]-amine]	580 nM	–
COc1ccccc1C(CNCc1cc(C(F)(F)F)cc(C(F)(F)F)c1)N1CCN(c2cccc(C)c2C)CC1 (centres unmarked) [Example 20, 3,5-Bistrifluoromethylbenzyl-[2-(2-methoxyphenyl)-2-(4-(2,3-dimethylphenyl)-piperazine-1-yl)-ethyl]-amine]	520 nM	–
COc1ccccc1C(CNCc1cc(C(F)(F)F)cc(C(F)(F)F)c1)N1CCN(Cc2ccccc2)CC1 (centres unmarked) [Example 22, 3,5-Bistrifluoromethylbenzyl-[2-(2-methoxyphenyl)-2-(4-benzylpiperazine-1-yl)-ethyl]-amine]	154 nM	–
COc1ccccc1C(CNCc1cc(C(F)(F)F)cc(C(F)(F)F)c1)N1CCN(C(C)c2ccccc2)CC1 (centres unmarked) [Example 23, 3,5-Bistrifluoromethylbenzyl-[2-(2-methoxyphenyl)-2-(4-(1-phenylethyl)-piperazine-1-yl)-ethyl]-amine]	108 nM	–
COc1ccccc1C(CNCc1cc(C(F)(F)F)cc(C(F)(F)F)c1)N1CCN(Cc2ccc3c(c2)OCO3)CC1 (centres unmarked) [Example 27, 3,5-Bistrifluoromethylbenzyl-[2-(2-methoxyphenyl)-2-(4-(3,4-methylenedioxybenzyl)-piperazine-1-yl)-ethyl]-amine]	111 nM	–
COc1ccccc1C(CNCc1cc(C(F)(F)F)cc(C(F)(F)F)c1)N1CCN(c2ccccn2)CC1 (centres unmarked) [Example 28, 3,5-Bistrifluoromethylbenzyl-[2-(2-methoxyphenyl)-2-(4-(2-pyridyl)-piperazine-1-yl)-ethyl]-amine]	102 nM	–
COc1ccccc1C(CNCc1cc(C(F)(F)F)cc(C(F)(F)F)c1)N1CCN(c2ccc3ccccc3n2)CC1 (centres unmarked) [Example 29, 3,5-Bistrifluoromethylbenzyl-[2-(2-methoxyphenyl)-2-(4-(2-quinolinyl)-piperazine-1-yl)-ethyl]-amine]	119 nM	–
CN1CCN(C(CNCc2cc(C(F)(F)F)cc(C(F)(F)F)c2)c2ccccc2)CC1 (centres unmarked) [Example 30, 3,5-Bistrifluoromethylbenzyl-[2-phenyl-2-(4-methylperazine-1-yl)-ethyl]-amine]	90 nM	–
COc1ccccc1C(CNCc1cc(C(F)(F)F)cc(C(F)(F)F)c1)N1CCN(C)CC1 (centres unmarked) [Example 31, 3,5-Bistrifluoromethylbenzyl-[2-(2-methoxyphenyl)-2-(4-methylpiperazine-1-yl)-ethyl]-amine]	93 nM	–
COc1ccccc1C(CNCc1cc(C(F)(F)F)cc(C(F)(F)F)c1)N1CCN(C(C)C)CC1 (centres unmarked) [Example 34, 3,5-Bistrifluoromethylbenzyl-[2-(2-methoxyphenyl)-2-(4-(2-propyl)-piperazine-1-yl)-ethyl]-amine]	38 nM	–
FC(F)(F)c1cc(CNCC(c2ccc(Cl)c(Cl)c2)N2CCN(C3CCCCC3)CC2)cc(C(F)(F)F)c1 (centres unmarked) [Example 49, 3,5-Bistrifluoromethylbenzyl-[2-(3,4-dichlorophenyl)-2-(4-cyclohexylpiperazine-1-yl]-ethyl]-amine]	37 nM	–
COc1ccccc1C(CNCc1cc(C(F)(F)F)cc(C(F)(F)F)c1)N1CCN(CCO)CC1 (centres unmarked) [Example 57, 3,5-Bistrifluoromethylbenzyl-[2-(2-methoxyphenyl)-2-(4-(2-hydroxyethyl)-piperazine-1-yl)-ethyl]-amine]	64 nM	–
COc1ccccc1C(CNC(=O)Cc1ccc(Cl)cc1)N1CCN(C2CCCCC2)CC1 (centres unmarked) [Example 61, N-[2-(2-Methoxyphenyl)-2-(4-cyclohexylpiperazine-1-yl)-ethyl]-2-(4-chlorophenyl)-acetamide]	–	851 nM
COc1ccccc1C(CNC(=O)Cc1ccc(Cl)c(Cl)c1)N1CCN(C2CCCCC2)CC1 (centres unmarked) [Example 62, N-[2-(2-Methoxyphenyl)-2-(4-cyclohexylpiperazine-1-yl)-ethyl]-2-(3,4-dichlorophenyl)-acetamide]	276 nM	–
COc1ccccc1C(CNC(=O)Cc1ccccc1C(F)(F)F)N1CCN(C2CCCCC2)CC1 (centres unmarked) [Example 64, N-[2-(2-Methoxyphenyl)-2-(4-cyclohexylpiperazine-1-yl)-ethyl]-2-(2-trifluoromethylphenyl)-acetamide]	273 nM	–
COc1ccccc1C(CNCCc1cc(C(F)(F)F)cc(C(F)(F)F)c1)N1CCN(C2CCCCC2)CC1 (centres unmarked) [Example 66, 2-(3,5-Bistrifluoromethylphenyl)-2'-(2-methoxyphenyl)-2'-(4-cyclohexylpiperazine-1-yl)-diethylamine]	23 nM	–
COc1ccccc1C(CNC(=O)c1cc(C(F)(F)F)cc(C(F)(F)F)c1)N1CCCCC1 (centres unmarked) [Example 75, N-[2-(2-Methoxyphenyl)-2-piperidin-1-yl-ethyl]-3,5-bistrifluoromethylbenzamide]	700 nM	–
COc1ccccc1C(CNC(=O)Cc1cc(C(F)(F)F)cc(C(F)(F)F)c1)N1CCCCC1 (centres unmarked) [Example 78, N-[2-(2-Methoxyphenyl)-2-piperidin-1-yl-ethyl]-2-(3,5-bistrifluoromethylphenyl)acetamide]	250 nM	–
COc1ccccc1C(CNCCc1cc(C(F)(F)F)cc(C(F)(F)F)c1)N1CCCCC1 (centres unmarked) [Example 79, 2-(3,5-Bistrifluoromethylphenyl)-2'-(2-methoxyphenyl)-2'-piperidine-1-yl-diethylamine]	46 nM	–
COc1ccccc1C(CNCc1cc(C(F)(F)F)cc(C(F)(F)F)c1)N1CCCCC1C (centres unmarked) [Example 80, 3,5-Bistrifluoromethylbenzyl-[2-(2-methoxyphenyl)-2-(2-methylpiperidine-1-yl)-ethyl]-amine]	43 nM	–

The remaining compounds from weak to strong by Ki (read-out: Ki), led by results:

Ki (read-out: Ki)	SMILES	Ki (Ki)
23 nM	CCCN1CCN(C(CNCc2cc(C(F)(F)F)cc(C(F)(F)F)c2)c2ccccc2OC)CC1 (centres unmarked) [Example 32, 3,5-Bistrifluoromethylbenzyl-[2-(2-methoxyphenyl)-2-(4-(1-propyl)-piperazine-1-yl)-ethyl]-amine]	–
23 nM	COc1ccccc1C(CNC(=O)c1cc(C(F)(F)F)cc(C(F)(F)F)c1)N1CCN(C2CCCCC2)CC1 (centres unmarked) [Example 58, N-[2-(2-Methoxyphenyl)-2-(4-cyclohexylpiperazine-1-yl)-ethyl]-3,5-bistrifluoromethylbenzamide]	–
20 nM	COc1ccccc1C(CNCc1cc(C(F)(F)F)cc(C(F)(F)F)c1)N1CCN(CCC2CCCCC2)CC1 (centres unmarked) [Example 54, 3,5-Bistrifluoromethylbenzyl-[2-(2-methoxyphenyl)-2-(4-(2-cyclohexylethyl)-piperazine-1-yl)-ethyl]-amine]	–
18 nM	FC(F)(F)c1cc(CNCC(c2ccccc2)N2CCN(C3CCCCC3)CC2)cc(C(F)(F)F)c1 (centres unmarked) [Example 36, 3,5-Bistrifluoromethylbenzyl-[2-phenyl-2-(4-cyclohexylpiperazine-1-yl)-ethyl]-amine]	–
16 nM	COc1ccccc1C(CNCc1cc(C(F)(F)F)cc(C(F)(F)F)c1)N1CCN(C2CCCC2)CC1 (centres unmarked) [Example 35, 3,5-Bistrifluoromethylbenzyl-[2-(2-methoxyphenyl)-2-(4-cyclopentylpiperazine-1-yl)-ethyl]-amine]	–
16 nM	COc1ccccc1C(CNCc1cc(C(F)(F)F)cc(C(F)(F)F)c1)N1CCN(C2CCCCC2)CC1 (centres unmarked) [Example 39, 3,5-Bistrifluoromethylbenzyl-[2-(2-methoxyphenyl)-2-(4-cyclohexylpiperazine-1-yl)-ethyl]-amine]	–
16 nM	COc1ccccc1C(CNCCc1cc(C(F)(F)F)cc(C(F)(F)F)c1)N1CCN(C2CCCCCC2)CC1 (centres unmarked) [Example 69, 2-(3,5-Bistrifluoromethylphenyl)-2'-(2-methoxyphenyl)-2'-(4-cycloheptylpiperazine-1-yl)-diethylamine]	–
14 nM	COc1ccccc1C(CNC(=O)c1cc(C(F)(F)F)cc(C(F)(F)F)c1)N1CCN(C2CCCCC2)CC1 (centres unmarked) [Example 67, N-[2-(2-Methoxyphenyl)-2-(4-cyclohexylpiperazine-1-yl)-ethyl]-3,5-bistrifluoromethylbenzamide]	–
7 nM	COc1ccccc1C(CNCc1cc(C(F)(F)F)cc(C(F)(F)F)c1)N1CCN(CCc2ccccc2)CC1 (centres unmarked) [Example 26, 3,5-Bistrifluoromethylbenzyl-[2-(2-methoxyphenyl)-2-(4-(2-phenylethyl)-piperazine-1-yl)-ethyl]-amine]	–
5 nM	COc1ccccc1C(CNCc1cc(C(F)(F)F)cc(C(F)(F)F)c1)N1CCN(C2CCCCCC2)CC1 (centres unmarked) [Example 53, 3,5-Bistrifluoromethylbenzyl-[2-(2-methoxyphenyl)-2-(4-cycloheptylpiperazine-1-yl)-ethyl]-amine]	–
3 nM	COc1ccccc1C(CNC(=O)Cc1cc(C(F)(F)F)cc(C(F)(F)F)c1)N1CCN(C2CCCCCC2)CC1 (centres unmarked) [Example 68, N-[2-(2-Methoxyphenyl)-2-(4-cycloheptylpiperazine-1-yl)-ethyl]-2-(3,5-bistrifluoromethyl-phenyl)-acetamide]	–
